Structures are written as SMILES. Where “and” joins values, the source holds several entries; their conditions need not be identical. Identical values can stand only once.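 Where inhibition never reached the appropriate level, the endpoint shown equals the highest concentration tested. Otherwise, values were interpolated linearly from a five-concentration, 48-hour dose response in 96-well plates. GI50 marks 50% less growth. TGI denotes the concentration required for complete inhibition of growth.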

Among the test systems are T-47D breast; SK-MEL-5 melanoma; SW-620 colon; UACC-257 melanoma; HCT-15 colon; UO-31 renal; NCI/ADR-RES ovarian; HCT-116 colon; SF-539 CNS; SNB-19 CNS.
Common to all, as to experiment: DTP human tumour cell line panel, 48 h

As to `O=C(Oc1c(Cl)cc(C2(c3cc(Cl)c(OC(=O)c4ccccc4)c(Cl)c3)CCCCC2)cc1Cl)c1ccccc1`, the TGI was 37.2 µM with T-47D breast; 22.9 µM with SK-MEL-5 melanoma; 39.5 µM in the experiment with SW-620 colon; 26.1 µM in the experiment on UACC-257 melanoma; 24.6 µM with HCT-15 colon; 35.3 µM with UO-31 renal. In addition, the TGI worked out at 27.1 µM with NCI/ADR-RES ovarian, 25.9 µM with HCT-116 colon, 29.2 µM in the experiment with SF-539 CNS and 35.4 µM with SNB-19 CNS.

For `C[C@@H]1C(=O)O[C@H]1[C@H](O)CO`, the TGI in the experiment with T-47D breast, with SK-MEL-5 melanoma, in the experiment on SW-620 colon, with UACC-257 melanoma, in the experiment on HCT-15 colon and in the experiment on NCI/ADR-RES ovarian was greater than 100 µM in each case. The TGI in the experiment on HCT-116 colon and with SNB-19 CNS was greater than 100 µM in each case.

Take `CCCCCCCCCCCCCC1=C(O)C(=O)C(CC2=C(O)C(=O)C(CCCCCCCCCCCCC)=C(O)C2=O)=C(O)C1=O`: the total growth inhibition concentration (TGI) in the experiment with T-47D breast, in the experiment on SK-MEL-5 melanoma, with SW-620 colon, in the experiment with UACC-257 melanoma, in the experiment on UO-31 renal and in the experiment with HCT-116 colon was greater than 100 µM in each case. The TGI was greater than 100 µM with SF-539 CNS and 92.9 µM in the experiment on SNB-19 CNS.

Regarding `CC[C@@]1(O)C(=O)OCc2c1cc1n(c2=O)Cc2cc3ccccc3nc2-1`, the TGI in the experiment on T-47D breast was found to be 0.635 µM; in the experiment with SK-MEL-5 melanoma it was 0.181 µM; with SW-620 colon, 5.81 µM; with UACC-257 melanoma, 0.592 µM; in the experiment with HCT-15 colon, 7.99 µM; with UO-31 renal, 0.234 µM. For the same molecule, the TGI with NCI/ADR-RES ovarian is 0.125 µM; in the experiment on HCT-116 colon it was 1.91 µM; with SF-539 CNS, 0.0591 µM; in the experiment with SNB-19 CNS, greater than 30.9 µM. For the same molecule, the figures for the GI50 in the experiment on SW-620 colon and in the experiment on NCI/ADR-RES ovarian were 0.0246 µM and less than 0.0143 µM, respectively.

`Nc1[nH]c(=S)nc2nc3c(c(-c4ccccc4)c12)CCCC3`: the TGI in the experiment on T-47D breast, in the experiment with SK-MEL-5 melanoma, in the experiment on SW-620 colon, with HCT-15 colon, with UO-31 renal and in the experiment on NCI/ADR-RES ovarian was greater than 100 µM throughout. For the same molecule, the total growth inhibition concentration (TGI) in the experiment with HCT-116 colon, in the experiment with SF-539 CNS and with SNB-19 CNS was greater than 100 µM each time.

Consider `COc1ccccc1CC(C)N` (stereo not given), for which the TGI in the experiment with SK-MEL-5 melanoma, in the experiment on SW-620 colon, with UACC-257 melanoma, with HCT-15 colon, in the experiment on UO-31 renal and with HCT-116 colon was greater than 100 µM each time. Moreover, the TGI in the experiment with SF-539 CNS and in the experiment with SNB-19 CNS was greater than 100 µM in each case.

As for `CC(C)CCCC(C)[C@H]1CC[C@H]2n3c(nc4ccccc43)CCC[C@]12C` (stereo not given in full), the TGI in the experiment on T-47D breast is 35.8 µM; with SK-MEL-5 melanoma it was 32.8 µM; in the experiment on SW-620 colon it was 47.3 µM; with UACC-257 melanoma, 38.1 µM; with HCT-15 colon, 33.4 µM; in the experiment with UO-31 renal, 28.6 µM. For the same molecule, the TGI with NCI/ADR-RES ovarian was found to be 33.8 µM; with HCT-116 colon, 53.4 µM; with SF-539 CNS, 35.2 µM; in the experiment on SNB-19 CNS, 37.1 µM.

As for `O=C(NC(Cc1ccc(Br)cc1)C(=O)O)c1ccc(I)cc1` (stereo not given), the TGI with SK-MEL-5 melanoma, in the experiment on SW-620 colon, in the experiment with UACC-257 melanoma, with HCT-15 colon, in the experiment with UO-31 renal and in the experiment with NCI/ADR-RES ovarian was greater than 100 µM in each case. In addition, the TGI in the experiment with HCT-116 colon, in the experiment with SF-539 CNS and in the experiment with SNB-19 CNS was greater than 100 µM each time.

Take `CCN(CC)CC[n+]1ccc2c(C)c3[nH]c4ccc(O)cc4c3c(C)c2c1`: the TGI in the experiment on T-47D breast is 12.3 µM; in the experiment with SK-MEL-5 melanoma it was 12.6 µM and 27.1 µM; in the experiment with SW-620 colon, 93.1 µM and 88.3 µM; in the experiment on UACC-257 melanoma, 43.9 µM and 91.6 µM; with HCT-15 colon, 143 µM; in the experiment on UO-31 renal, > 96.1 µM and 150 µM. The TGI in the experiment with NCI/ADR-RES ovarian is 79.6 µM and 102 µM; in the experiment with HCT-116 colon, 26.7 µM and 30.8 µM; in the experiment with SF-539 CNS, 19 µM and 31.8 µM; with SNB-19 CNS, 8.76 µM and 10.8 µM. The GI50 is 4.5 µM in the experiment with SK-MEL-5 melanoma; 24.2 µM in the experiment with UACC-257 melanoma; 20.6 µM in the experiment on UO-31 renal; 21.7 µM in the experiment on NCI/ADR-RES ovarian; 4.36 µM in the experiment with HCT-116 colon; 0.634 µM in the experiment with SNB-19 CNS.

Regarding `CSc1nc(CO)c(CO)n1C`, the TGI in the experiment on SK-MEL-5 melanoma, with SW-620 colon, in the experiment on UACC-257 melanoma, in the experiment on HCT-15 colon, with UO-31 renal and with NCI/ADR-RES ovarian was greater than 100 µM each time. In addition, the TGI in the experiment on HCT-116 colon, in the experiment with SF-539 CNS and in the experiment with SNB-19 CNS was greater than 100 µM each time.

In the case of `CN(C)CCNC(=O)c1cc(Cl)cc2cc3ccccc3nc12`, the TGI stood at 2.6 µM with SK-MEL-5 melanoma; 7.02 µM in the experiment with SW-620 colon; 3.66 µM in the experiment with UACC-257 melanoma; 11.4 µM with HCT-15 colon; 4.12 µM in the experiment on UO-31 renal; 5.82 µM in the experiment with NCI/ADR-RES ovarian. Moreover, the TGI turned out to be 7 µM with HCT-116 colon, 3.84 µM in the experiment with SF-539 CNS and 7.47 µM with SNB-19 CNS.

Regarding `CCc1n[nH]c(=O)n1/N=C(\C)c1ccc([N+](=O)[O-])cc1`, the TGI with T-47D breast, in the experiment with SK-MEL-5 melanoma, with SW-620 colon, in the experiment with UACC-257 melanoma, in the experiment with HCT-15 colon and with UO-31 renal was greater than 100 µM in each case. Also, the TGI in the experiment with NCI/ADR-RES ovarian, with HCT-116 colon and in the experiment on SNB-19 CNS was greater than 100 µM throughout.

In the case of `OC[C@H]1NC[C@@H](O)[C@@H](O)[C@H]1O`, the TGI with T-47D breast, with SK-MEL-5 melanoma, with SW-620 colon, in the experiment with UACC-257 melanoma, in the experiment on HCT-15 colon and with UO-31 renal was greater than 100 µM each time. The total growth inhibition concentration (TGI) in the experiment with NCI/ADR-RES ovarian, in the experiment with HCT-116 colon and in the experiment on SNB-19 CNS was greater than 100 µM in each case.

For the molecule `Cc1[nH]c(=O)[nH]c(=O)c1/C=C/C(=O)NC(CO)CS(=O)CS(C)=O` (stereo not given), the TGI in the experiment with SK-MEL-5 melanoma was 76.9 µM; in the experiment with SW-620 colon, 409 µM; in the experiment on UACC-257 melanoma, 151 µM; with HCT-15 colon, 408 µM; with UO-31 renal, 130 µM; in the experiment on NCI/ADR-RES ovarian it was 263 µM. In addition, the TGI turned out to be 129 µM with HCT-116 colon, 51.5 µM in the experiment on SF-539 CNS and 77.9 µM in the experiment on SNB-19 CNS.

These data come from PubChem BioAssay (NCI).
